Converted amounts (≈) assume the structure as drawn. Where two headings read alike, the source gives them in different places. Starred links: 1 amine or outer side, 2 acyl side, 3 side chain; linkers in the order of their positions; H or OH if unused. Positions of bridges follow the written chain, without caps; N, C: chain ends. Non-standard residues stand in square brackets, D forms with d. Residues, ends and D or L forms follow the SMILES beside them. ξ: configuration not given here. X6 = CC(C)CCCCCCCCC(CC(=O)[*:1])O[*:2]; X5 = CC(C)CCCCCCCC(CC(=O)[*:1])O[*:2]; ξAsp(3ξ-OH) = NC(C(=O)O)C(O)C(=O)O; X1 = O=C(C1C(O)CCN1[*:1])[*:2]

Assay type in all cases: cell-based
In experiment [1] the test system is Enterococcus faecalis NCTC 12203 (vancomycin-resistant). Put plainly: Minimum growth inhibitory concentration, agar serial dilution. The settings on record: NCTC12203, 5% sheep blood-supplemented Mueller-Hinton agar.
In experiment [2] the test system is Bacillus cereus ATCC10702. The description is as above. The settings on record: Bacillus cereus ATCC10702; Mueller-Hinton agar; read-out: Minimum growth inhibitory concentration.
The next experiment has as its system Micrococcus luteus FDA16. The experiment is described as above. The settings on record: Mueller-Hinton agar.
Experiment [3] concerns Klebsiella pneumoniae PCI602. Described as above. The settings on record: Mueller-Hinton agar.
Experiment [4] concerns Staphylococcus aureus FDA209P. Described as above. The settings on record: Mueller-Hinton agar.
For another experiment, the system named is Shigella sonnei JS11746. Described as above. The settings on record: Mueller-Hinton agar. On the procedure:
Minimum growth inhibitory concentrations (μg/ml) of tripropeptin Z against a variety of microorganisms were measured on a Mueller-Hinton agar medium (manufactured by Difco Laboratories) or on a 5% sheep blood-supplemented Mueller-Hinton agar medium (manufactured by Difco Laboratories) for Enterococcus, by a serial dilution method according to the standard method as provided by Japanese Society of Chemotherapy.
Minimum growth inhibitory concentrations (μg/ml) of tripropeptin A against a variety of microorganisms were measured on a Mueller-Hinton agar medium (manufactured by Difco Laboratories) or on a 5% sheep blood-supplemented Mueller-Hinton agar medium (manufactured by Difco Laboratories) for Enterococcus, by a serial dilution method according to the standard method as provided by Japanese Society of Chemotherapy.
Minimum growth inhibitory concentrations (μg/ml) of tripropeptin B against a variety of microorganisms were measured on a Mueller-Hinton agar medium (manufactured by Difco Laboratories) or on a 5% sheep blood-supplemented Mueller-Hinton agar medium (manufactured by Difco Laboratories) for Enterococcus, by a serial dilution method according to the standard method as provided by Japanese Society of Chemotherapy.
Minimum growth inhibitory concentrations (μg/ml) of tripropeptin C against a variety of microorganisms were measured on a Mueller-Hinton agar medium (manufactured by Difco Laboratories) or on a 5% sheep blood-supplemented Mueller-Hinton agar medium (manufactured by Difco Laboratories) for Enterococcus, by a serial dilution method according to the standard method as provided by Japanese Society of Chemotherapy.
Minimum growth inhibitory concentrations (μg/ml) of tripropeptin D against a variety of microorganisms were measured on a Mueller-Hinton agar medium (manufactured by Difco Laboratories) or on a 5% sheep blood-supplemented Mueller-Hinton agar medium (manufactured by Difco Laboratories) for Enterococcus, by a serial dilution method according to the standard method as provided by Japanese Society of Chemotherapy.

Experiment [5] has as its system Enterococcus faecalis JCM5803. The description is as above. The settings on record: 5% sheep blood-supplemented Mueller-Hinton agar.
Experiment [6] has as its system Enterococcus faecalis NCTC 12201 (vancomycin-resistant). The description is as above. The settings on record: NCTC12201, 5% sheep blood-supplemented Mueller-Hinton agar.
The subject of the next experiment is Salmonella typhi T-63. The description is as above. The settings on record: Salmonella enterica, Mueller-Hinton agar.
For experiment [7], the system named is Staphylococcus aureus MS16526 (methicillin-resistant). Described as above. The settings on record: Mueller-Hinton agar.
The subject of experiment [8] is Enterococcus faecium NCTC 12202 (vancomycin-resistant). Described as above. The settings on record: NCTC12202, 5% sheep blood-supplemented Mueller-Hinton agar.
Experiment [9] deals with Staphylococcus aureus Smith. The experiment is described as above. The settings on record: Mueller-Hinton agar.
Experiment [10] concerns Staphylococcus aureus MS16497 (methicillin-resistant). The description is as above. The settings on record: Mueller-Hinton agar.
Experiment [11] has as its system Staphylococcus aureus TY-03456 (methicillin-resistant). The description is as above. The settings on record: Staphylococcus aureus TY-03456 (methicillin-resistant); Mueller-Hinton agar; read-out: Minimum growth inhibitory concentration.
The subject of experiment [12] is Staphylococcus aureus TY-00933 (methicillin-resistant). The experiment is described as above. The settings on record: Staphylococcus aureus TY-00933 (methicillin-resistant); Mueller-Hinton agar; read-out: Minimum growth inhibitory concentration.
Experiment [13] relates to Corynebacterium bovis 1810. Described as above. The settings on record: Mueller-Hinton agar.
The test system of experiment [14] is Enterococcus faecium JCM5804. The description is as above. The settings on record: 5% sheep blood-supplemented Mueller-Hinton agar.
A further experiment deals with Bacillus subtilis PCI219. The description is as above. The settings on record: Mueller-Hinton agar.
Experiment [15] relates to Enterococcus faecium NCTC 12204 (vancomycin-resistant). Described as above. The settings on record: NCTC12204, 5% sheep blood-supplemented Mueller-Hinton agar.
Another experiment deals with Bacillus anthracis. Put plainly: microbe, parasite or virus in culture. The settings on record: read-out: Minimum growth inhibitory concentration.
Experiment [16] deals with Staphylococcus aureus TY-03454 (methicillin-resistant). Kind of experiment: Minimum growth inhibitory concentration, agar serial dilution. The settings on record: Mueller-Hinton agar.
Experiment [17] deals with Staphylococcus aureus TY-04282 (methicillin-resistant). The experiment is described as above. The settings on record: Mueller-Hinton agar.
In experiment [18] the test system is Staphylococcus aureus MS9610 (multi-drug-resistant). The experiment is described as above. The settings on record: Mueller-Hinton agar.
The subject of experiment [19] is Staphylococcus aureus MS16460 (methicillin-resistant). Described as above. The settings on record: read-out: Minimum growth inhibitory concentration.

For `CC(C)CCCCCCCC1CC(=O)NC(C(C)O)C(=O)N2CCCC2C(=O)N2CCCC2C(=O)NC(CCCNC(=N)N)C(=O)NC(C(O)C(=O)O)C(=O)NC(CO)C(=O)N2CCC(O)C2C(=O)NC(C(O)C(=O)O)C(=O)O1` (stereo not drawn) [Tripropeptin A] (TPPR[ξAsp(3ξ-OH)]S[X1][ξAsp(3ξ-OH)]; linker N-C via X5; configuration not given here), the MIC was 50 µg/mL (≈ 44.4 µM) in [1]; 12.3 µg/mL (≈ 10.9 µM) in experiment [2]; under 0.39 µg/mL against Micrococcus luteus FDA16; over 50 µg/mL in [3]; 1.56 µg/mL (≈ 1.39 µM) in experiment [4]; over 100 µg/mL in the experiment with Shigella sonnei JS11746. For the same compound, the MIC was 50 µg/mL (≈ 44.4 µM) in experiment [5]; 50 µg/mL (≈ 44.4 µM) in experiment [6]; over 50 µg/mL against Salmonella typhi T-63; 3.13 µg/mL (≈ 2.78 µM) in experiment [7]; 50 µg/mL (≈ 44.4 µM) in experiment [8]; 0.78 µg/mL (≈ 0.693 µM) in [9]. The MIC in [10] is 6.25 µg/mL (≈ 5.55 µM); in experiment [11], 6.25 µg/mL (≈ 5.55 µM); in experiment [12], 6.25 µg/mL (≈ 5.55 µM); in experiment [13], 1.56 µg/mL (≈ 1.39 µM); in experiment [14] it was 50 µg/mL (≈ 44.4 µM); in the experiment with Bacillus subtilis PCI219, 3.13 µg/mL (≈ 2.78 µM). In addition, the MIC in [15] was 50 µg/mL (≈ 44.4 µM); with Bacillus anthracis, 25 µg/mL (≈ 22.2 µM); in experiment [16], 6.25 µg/mL (≈ 5.55 µM); in experiment [17], 6.25 µg/mL (≈ 5.55 µM); in experiment [18], 6.25 µg/mL (≈ 5.55 µM); in experiment [19] (Staphylococcus aureus MS16460 (methicillin-resistant), Mueller-Hinton agar), 6.25 µg/mL (≈ 5.55 µM).
In the case of `CC(C)CCCCCCCCC1CC(=O)NC(C(C)O)C(=O)N2CCCC2C(=O)N2CCCC2C(=O)NC(CCCNC(=N)N)C(=O)NC(C(O)C(=O)O)C(=O)NC(CO)C(=O)N2CCC(O)C2C(=O)NC(C(O)C(=O)O)C(=O)O1` (stereo not drawn) [Tripropeptin B] (TPPR[ξAsp(3ξ-OH)]S[X1][ξAsp(3ξ-OH)]; linker N-C via X6; configuration not given here), the MIC is 50 µg/mL (≈ 43.8 µM) in [1]; over 100 µg/mL in experiment [2]; 0.2 µg/mL (≈ 0.175 µM) against Micrococcus luteus FDA16; over 100 µg/mL in [3]; 1.56 µg/mL (≈ 1.37 µM) in [4]; over 100 µg/mL against Shigella sonnei JS11746. The MIC in experiment [5] is 25 µg/mL (≈ 21.9 µM); in experiment [6] it was 12.5 µg/mL (≈ 11 µM); with Salmonella typhi T-63 it was over 100 µg/mL; in experiment [7], 3.13 µg/mL (≈ 2.74 µM); in experiment [8], 25 µg/mL (≈ 21.9 µM); in experiment [9], 1.56 µg/mL (≈ 1.37 µM). Also, the MIC amounted to 3.13 µg/mL (≈ 2.74 µM) in experiment [10]; 3.13 µg/mL (≈ 2.74 µM) in experiment [11]; 3.13 µg/mL (≈ 2.74 µM) in [12]; 0.78 µg/mL (≈ 0.684 µM) in experiment [13]; 25 µg/mL (≈ 21.9 µM) in experiment [14]; 1.56 µg/mL (≈ 1.37 µM) against Bacillus subtilis PCI219. The MIC was 25 µg/mL (≈ 21.9 µM) in experiment [15]; 6.25 µg/mL (≈ 5.48 µM) in the experiment with Bacillus anthracis; 3.13 µg/mL (≈ 2.74 µM) in experiment [16]; 3.13 µg/mL (≈ 2.74 µM) in experiment [17]; 3.13 µg/mL (≈ 2.74 µM) in [18]; 6.25 µg/mL (≈ 5.48 µM) in [19] (Staphylococcus aureus).

Source of the values: patent US7271147B2, “Antibiotics, tripropeptins and process for producing the same” (Zaidan Hojin Biseibutsu Kagaku Kenkyu Kai, priority 2000, dated 2007).
